Here are results for 39 compounds from patent US12528818B2, “Compositions and methods for inhibition of RAS” (Leidos Biomedical Research, Inc., priority 2021, dated 2026).

Some results are limits rather than exact numbers.

For one test, the system named is pERK in NCI-H358 cells. The test is described as follows: Cell-based pERK HTRF assay (pERK inhibition in H358 cells). To be noted: Homo sapiens, NCI-H358, 0.5 h, pERK inhibition IC50, NCI-H358 cells, 30 min incubation; read-out: PERK in H358 cell. Background: TR-FRET usually uses a lanthanide donor and a delayed reading to cut background.
Turning to `C=CC(=O)N1CC(Nc2nc(OCC34CCCN3CCC4)nc3c(F)c(-c4ccc(F)c5sc(N)nc45)c(Cl)cc23)[C@H]1C` (stereo partly drawn) [Compound 213], the IC50 was > 1 µM.

As for `C=CC(=O)N1C[C@H](C)N(c2nc(OC[C@@]34CCCN3C[C@H](F)C4)nc3c(F)c(-c4ccc(F)c5sc(N)c(C#N)c45)c(C(F)(F)F)cc23)C[C@H]1C` (single isomer, unassigned) [Compound 313], the IC50 was < 0.1 µM.

On to `C=CC(=O)N(C)C1CN(c2nc(OCC34CCCN3CCC4)nc3c(F)c(-c4ccc(F)c5sc(N)nc45)c(Cl)cc23)C1` [Compound 167], for which the IC50 is > 1 µM.

In the case of `C=CC(=O)N1CCC(N(C)c2nc(OC[C@@H]3CCCN3C)nc3c(F)c(-c4ccc(F)c5sc(N)c(C#N)c45)c(Cl)cc23)[C@H]1C` (stereo partly drawn) [Compound 419], the IC50 was < 0.1 µM.

In the case of `C=CC(=O)N1CC[C@@H](N(CC)c2nc(OC[C@@]34CCCN3C[C@H](F)C4)nc3c(F)c(-c4ccc(F)c5sc(N)c(C#N)c45)c(C(F)(F)F)cc23)C1` [Compound 348, 4-(4-(((R)-1-acryloylpyrrolidin-3-yl)(ethyl)amino)-8-fluoro-2-(((2R,7aS)-2-fluorotetrahydro-1H-pyrrolizin-7a(5H)-yl)methoxy)-6-(trifluoromethyl)quinazolin-7-yl)-2-amino-7-fluorobenzo[b]thiophene-3-carbonitrile], the IC50 was < 0.1 µM.

Take `C=CC(=O)N1C[C@H](C)N(c2nc(OC[C@@H]3CCCN3C)nc3c(F)c(-c4ccc(F)c5sc(N)c(C#N)c45)c(C(F)(F)F)cc23)C[C@H]1C` (single isomer, unassigned) [Compound 458]: the IC50 is < 0.1 µM.

With `C=CC(=O)N1C[C@@H](F)[C@@H](N(C)c2nc(OCC34CCCN3CCC4)nc3cc(-c4ccc(F)c5sc(N)c(C#N)c45)c(C(F)(F)F)cc23)C1` [Compound 369], the IC50 was < 0.1 µM.

As for `C=CC(=O)N1C[C@H](C)N(c2nc(N3CC(N4CC(OC)C4)C3)nc3c(F)c(-c4ccc(F)c5sc(N)c(C#N)c45)c(C(F)(F)F)cc23)C[C@H]1C` [Compound 331], the IC50 was < 0.1 µM.

For the compound `C=CC(=O)N1CCN(c2nc(OCC34CCCN3CCC4)nc3c(F)c(-c4ccc(F)c5sc(N)nc45)c(Cl)cc23)CC1` [Compound 67], the IC50 is < 0.1 µM.

With `C=CC(=O)N1CCN(c2nc(OC[C@]34CCCN3C[C@H](F)C4)nc3c(F)c(-c4ccc(F)c5sc(N)nc45)c(C(F)(F)F)cc23)[C@@H](C)C1` [Compound 177], the IC50 is < 0.1 µM.

Take `C=CC(=O)N1C[C@@H](C)[C@@H](N(C)c2nc(OC[C@@]34CCCN3C[C@H](F)C4)nc3c(F)c(-c4ccc(F)c5sc(N)nc45)c(C(F)(F)F)cc23)C1` [Compound 292]: the IC50 was in the range of 0.1 to 1 µM.

Turning to `C=CC(=O)N1CC[C@@H](N(C)c2nc(OC[C@@]34CCCN3C[C@H](F)C4)nc3cc(-c4ccc(F)c5sc(N)c(C#N)c45)c(C#N)cc23)[C@H]1COC` [Compound 393], the IC50 is < 0.1 µM.

With `C=CC(=O)N1CC[C@@H](N(C)c2nc(OC[C@@H]3C[C@@H](F)CN3C)nc3c(F)c(-c4ccc(F)c5sc(N)nc45)c(C(F)(F)F)cc23)C1` (atropisomer, axis not shown) [Compound 231], the IC50 lay in the range of 0.1 to 1 µM.

Regarding `C=CC(=O)N1CC[C@@H]2[C@H]1CN2c1nc(OC[C@@H]2C[C@@H](F)CN2C)nc2c(F)c(-c3ccc(F)c4sc(N)nc34)c(C(F)(F)F)cc12` [Compound 138], the IC50 is < 0.1 µM.

`CN1CCC[C@H]1COc1nc(NC2CCN(C#N)C2)c2cc(Cl)c(-c3ccc(F)c4sc(N)nc34)c(F)c2n1` (stereo partly drawn) [Compound 51]: the IC50 is 0.1 to 1 µM.

As for `C=CC(=O)N1C[C@H](C)N(c2nc(OC[C@@]34CCCN3C[C@H](F)C4)nc3cc(-c4ccc(F)c5sc(N)c(C#N)c45)c(C(F)(F)F)cc23)C[C@H]1C` [Compound 304], the IC50 was < 0.1 µM.

Turning to `C=CC(=O)N1CC(Nc2nc(OCC34CCCN3CCC4)nc3c(F)c(-c4ccc(F)c5sc(N)nc45)c(CC#N)cc23)C1` [Compound 91, 2-(4-((1-acryloylazetidin-3-yl)amino)-7-(2-amino-7-fluorobenzo[d]thiazol-4-yl)-8-fluoro-2-((tetrahydro-1H-pyrrolizin-7a(5H)-yl)methoxy)quinazolin-6-yl)acetonitrile], the IC50 was > 1 µM.

With `C=CC(=O)N1[C@@H](C)CN(c2nc(OC[C@@]34CCCN3C[C@H](OC)C4)nc3c(F)c(-c4ccc(F)c5sc(N)c(C#N)c45)c(C(F)(F)F)cc23)C[C@@H]1C` (atropisomer, axis not shown) [Compound 364], the IC50 was < 0.1 µM.

For the compound `C=CC(=O)N1C[C@H](C)N(c2nc(OC[C@@]34CCCN3C[C@H](OC)C4)nc3c(F)c(-c4ccc(F)c5sc(N)c(C#N)c45)c(C(F)(F)F)cc23)C[C@H]1C` [Compound 341], the IC50 is < 0.1 µM.

Consider `C=CC(=O)N1C[C@H](C)N(c2nc(OC[C@@]34CCCN3C[C@H](F)C4)nc3c(Cl)c(-c4ccc(F)c5sc(N)c(C#N)c45)c(C#N)cc23)C[C@H]1C` [Compound 422], for which the IC50 was < 0.1 µM.

`CC#CC(=O)N1CCN(c2nc(OC[C@@H]3CCCN3CCF)nc3c(F)c(-c4ccc(F)c5sc(N)nc45)c(C(F)(F)F)cc23)CC1` [Compound 154]: the IC50 lay within 0.1 to 1 µM.

In the case of `C=CC(=O)N1CCC(N(C)c2nc(OC[C@@H]3C[C@@H](OC)CN3C)nc3c(F)c(-c4ccc(F)c5sc(N)c(C#N)c45)c(C(F)(F)F)cc23)[C@H]1COC` (stereo partly drawn) [Compound 454], the IC50 is < 0.1 µM.

As for `C=CC(=O)N1[C@H](C)CN(c2nc(OC[C@@]34CCCN3C[C@H](F)C4)nc3c(F)c(-c4ccc(F)c5sc(N)c(C#N)c45)c(C(F)(F)F)cc23)C[C@H]1C` [Compound 330], the IC50 lay in the range of 0.1 to 1 µM.

Regarding `C=CC(=O)N1CC[C@@H](N(C)c2nc(OC[C@@]34CCCN3C[C@H](F)C4)nc3c(F)c(-c4ccc(F)c5sc(C(F)F)nc45)c(C(F)(F)F)cc23)C1` [Compound 310], the IC50 was > 1 µM.

On to `C=CC(=O)N1C[C@H](C)N(c2nc(OC[C@]34CCCN3C[C@@H](F)C4)nc3c(F)c(-c4ccc(F)c5sc(N)c(C#N)c45)c(C(F)(F)F)cc23)C[C@H]1C` [Compound 334], for which the IC50 is < 0.1 µM.

Take `C=C(F)C(=O)N1C[C@H](C)N(c2nc(OC[C@@]34CCCN3C[C@H](F)C4)nc3c(F)c(-c4ccc(F)c5sc(N)nc45)c(C(F)(F)F)cc23)C[C@H]1C` [Compound 203]: the IC50 was 0.1 to 1 µM.

As for `C=CC(=O)N1CCN(c2nc(OCC34CCCN3C[C@H](OC)C4)nc3c(F)c(-c4ccc(F)c5sc(N)nc45)c(C(F)(F)F)cc23)CC1` (stereo partly drawn) [Compound 209], the IC50 is < 0.1 µM.

As to `C=CC(=O)N1CC[C@@H](N(C)c2nc(OC[C@@]34CCCN3C[C@H](F)C4)nc3c(F)c(-c4ccc(F)c5sc(N)c(C#N)c45)c(C(F)(F)F)cc23)C1` [Compound 253], the IC50 was < 0.1 µM.

For the compound `C=CC(=O)N1C[C@H](N(C)c2nc(OC[C@@]34CCCN3C[C@H](F)C4)nc3c(F)c(-c4ccc(F)c5sc(N)nc45)c(C(F)(F)F)cc23)C[C@@H]1C` [Compound 293], the IC50 was < 0.1 µM.

On to `C=CC(=O)N1C[C@@H]2C[C@H]1[C@@H]2N(C)c1nc(OC[C@@]23CCCN2C[C@H](F)C3)nc2c(F)c(-c3ccc(F)c4sc(N)nc34)c(C(F)(F)F)cc12` [Compound 282], for which the IC50 was > 1 µM.

Turning to `C=CC(=O)N1CCC(N(CC)c2nc(OC[C@@]34CCCN3C[C@H](F)C4)nc3c(C#N)c(-c4ccc(F)c5sc(N)c(C#N)c45)c(Cl)cc23)[C@H]1C` (stereo partly drawn) [Compound 411], the IC50 is < 0.1 µM.

`C=CC(=O)N1C2CC1CN(c1nc(OCC34CCCN3CCC4)nc3c(F)c(-c4ccc(F)c5sc(N)nc45)c(Cl)cc13)C2` [Compound 161]: the IC50 was > 1 µM.

Consider `C=CC(=O)N1CC[C@H](N(C)c2nc(OC[C@@]34CCCN3C[C@H](F)C4)nc3c(F)c(-c4ccc(F)c5sc(N)c(C#N)c45)c(Cl)cc23)[C@@H]1C` (atropisomer, axis not shown) [Compound 467], for which the IC50 is < 0.1 µM.

As to `C=CC(=O)N1C[C@H](C)N(c2nc(OC[C@@]34CCCN3C[C@H](F)C4)nc3c(Cl)c(-c4ccc(F)c5sc(N)nc45)c(C(F)(F)F)cc23)C[C@H]1C` [Compound 295, 1-((2R,5S)-4-(7-(2-amino-7-fluorobenzo[d]thiazol-4-yl)-8-chloro-2-(((2R,7aS)-2-fluorotetrahydro-1H-pyrrolizin-7a(5H)-yl)methoxy)-6-(trifluoromethyl)quinazolin-4-yl)-2,5-dimethylpiperazin-1-yl)prop-2-en-1-one], the IC50 was < 0.1 µM.

As for `C=C(F)C(=O)N1C[C@H](C)N(c2nc(OC[C@]34CCCN3C[C@H](F)C4)nc3c(F)c(-c4ccc(F)c5sc(N)nc45)c(C(F)(F)F)cc23)C[C@H]1C` [Compound 205], the IC50 lay in the range of 0.1 to 1 µM.

As for `C=CC(=O)N1CC(Nc2nc(OCC34CCCN3CCC4)nc3c(F)c(-c4ccc(F)c5sc(N)nc45)c(Cl)cc23)C1` [Compound 49, 1-(3-((7-(2-amino-7-fluorobenzo[d]thiazol-4-yl)-6-chloro-8-fluoro-2-((tetrahydro-1H-pyrrolizin-7a(5H)-yl)methoxy)quinazolin-4-yl)amino)azetidin-1-yl)prop-2-en-1-one], the IC50 was > 1 µM.

Staying with this test, now noted: pERK inhibition IC50, NCI-H358 cells, 30 min incubation; read-out: PERK in H358 cell.
For the compound `C=CC(=O)N1CC[C@H](N(C)c2nc(OC[C@@]34CCCN3C[C@H](F)C4)nc3c(F)c(-c4ccc(F)c5sc(N)c(C#N)c45)c(C(F)(F)F)cc23)[C@@H]1C` (single isomer, unassigned) [Compound 473], the IC50 was < 0.1 µM.

With `C=CC(=O)N1CC[C@@H](N(C)c2nc(OC[C@@]34CCCN3C[C@H](F)C4)nc3c(Cl)c(-c4ccc(F)c5sc(N)nc45)c(C(F)(F)F)cc23)C1` (single isomer, unassigned) [Compound 303], the IC50 is 0.1 to 1 µM.

As to `C=CC(=O)N1C[C@H](C)N(c2nc(OC[C@@]34CCCN3C[C@H](OC)C4)nc3c(F)c(-c4ccc(F)c5sc(N)nc45)c(C(F)(F)F)cc23)C[C@H]1C` [Compound 297], the IC50 is < 0.1 µM.
